Measured values from paper PMC8205226, “HIV-1 Integrase Inhibitors with Modifications That Affect Their Potencies against Drug Resistant Integrase Mutants” (ACS Infectious Diseases, 2021).
Read-outs that look alike come from different tables or passages of the source.

Legend:
Assay type in all cases: cell-based
WT HIV-1 = experiment: single-round infectivity assay, WT HIV-1 IN vector; settings: Human immunodeficiency virus 1, read-out: EC50 values WT, vector carrying WT HIV-1 IN, single round infection, n = 4; new compounds
Experimental: (§1) Figure 2 Antiviral activities of the new compounds against RAL-resistant mutants. The EC50 values were determined using a vector that carries WT HIV-1 IN and the RAL-resistant mutants in a single round infection assay. […] Error bars represent the standard deviations of independent experiments, n = 4, performed in triplicate. The graph has a maximum value of 550 nM.
(§2) WT and mutant HIV-1 viral vectors were used in single-round infectivity assays to determine the antiviral potencies (EC50 values) of the compounds and the effects of the mutants on the EC50 values as previously described.[30],[54] Single round infectivity measurements were determined as done previously.[38]
(§3) The vector pNLNgoMIVR-ΔENV.LUC has been described previously.[26] To produce the new IN mutants used in this study, the IN open reading frame was removed from pNLNgoMIVR-ΔENV.LUC by digestion with KpnI and SalI, and the resulting fragment was inserted between the KpnI and SalI sites of pBluescript KS+. Using that construct as the wild-type template, we prepared the following HIV-1 IN mutants using the QuikChange II XL site directed mutagenesis kit (Agilent Technologies, Santa Clara, CA) protocol: N117A, N117H, P142A, P142H, P142S, Y143C, Y143H, S230R, R231G, and R231K. The following sense oligonucleotides were used with matching cognate antisense oligonucleotides (not shown) (Integrated DNA Technologies, Coralville, IA) in the mutagenesis: N117A, 5′-[…]-3′; N117H, 5′-[…]-3′; P142A, 5′-[…]-3′; P142H, 5′-[…]-3′; P142S, 5′-[…]-3′; Y143C, 5′- […]-3′; Y143H, 5′-[…]-3′; S230R, 5′- […]-3′; R231G, 5′-[…]-3′; R231K, 5′-[…]-3′.

HIV-1 IN mutant Y143R = experiment: single-round infectivity assay, Y143R IN mutant
Experimental: as §1, §2, §3

HIV-1 IN mutant N155H = experiment: single-round infectivity assay, N155H IN mutant
Experimental: as §1, §2, §3

[1] = tested on: HIV-1 IN double mutant G140S/Q148H; experiment: single-round infectivity assay, G140S/Q148H IN double mutant
Experimental: as §1, §2, §3

HIV-1 IN mutant N117A = experiment: single-round infectivity assay, N117A IN mutant
Experimental: (§4) The EC50 values were determined using a vector that carries the IN mutant in a single round infection assay. […] Error bars represent the standard deviations of independent experiments, n = 4, performed in triplicate.
as §2, §3

HIV-1 IN mutant N117H = experiment: single-round infectivity assay, N117H IN mutant
Experimental: as §4, §2, §3

HIV-1 IN mutant G118R = experiment: single-round infectivity assay, G118R IN mutant
Experimental: as §4, §2, §3

HIV-1 IN mutant S119R = experiment: single-round infectivity assay, S119R IN mutant
Experimental: as §4, §2, §3

HIV-1 IN mutant Y143C = experiment: single-round infectivity assay, Y143C IN mutant
Experimental: as §4, with “Figure 4 Mutations in the β5-α3 loop affect the antiviral potencies of the new compounds. The” for “The”
as §2, §3

HIV-1 IN mutant Y143H = experiment: single-round infectivity assay, Y143H IN mutant
Experimental: as §4, with “Figure 4 Mutations in the β5-α3 loop affect the antiviral potencies of the new compounds. The” for “The”
as §2, §3

HIV-1 IN mutant P142A = experiment: single-round infectivity assay, P142A IN mutant
Experimental: as §4, with “Figure 4 Mutations in the β5-α3 loop affect the antiviral potencies of the new compounds. The” for “The”
as §2, §3

HIV-1 IN mutant P142H = experiment: single-round infectivity assay, P142H IN mutant
Experimental: as §4
Single round infectivity measurements were determined as done previously.[38]
as §3

HIV-1 IN mutant P142S = experiment: single-round infectivity assay, P142S IN mutant
Experimental: as §4, with “Figure 4 Mutations in the β5-α3 loop affect the antiviral potencies of the new compounds. The” for “The”
as §2, §3

HIV-1 IN mutant S230R = experiment: single-round infectivity assay, S230R IN mutant
Experimental: as §4, with “Figure 5 Antiviral potencies of the new compounds against IN with mutations in the […]. The” for “The”
as §2, §3

HIV-1 IN mutant R231G = experiment: single-round infectivity assay, R231G IN mutant
Experimental: as §4, with “Figure 5 Antiviral potencies of the new compounds against IN with mutations in the […]. The” for “The”
as §2, §3

HIV-1 IN mutant R231K = experiment: single-round infectivity assay, R231K IN mutant
Experimental: as §4, with “Figure 5 Antiviral potencies of the new compounds against IN with mutations in the […]. The” for “The”
as §2, §3

[2] = fold change in EC50, IN mutant versus WT HIV-1

O=C(NCc1ccc(F)cc1F)c1c(O)c2cc(CCS(=O)(=O)c3ccccc3)cnc2n(O)c1=O [6w, N-(2,4-Difluorobenzyl)-1,4-dihydroxy-2-oxo-6-(2-(phenylsulfonyl)ethyl)-1,2-dihydro-1,8-naphthyridine-3-carboxamide]
EC50 (WT HIV-1): 0.0106 ± 0.001 µM
ratio of the EC50s (our compound relative to DTG) against Y143R (HIV-1 IN mutant Y143R; EC50 compound / EC50 DTG): 1.7
EC50 (HIV-1 IN mutant Y143R; Human immunodeficiency virus 1, read-out: EC50 values Y143R): 0.0072 ± 0.0017 µM
FC Y143R (HIV-1 IN mutant Y143R; [2]): 0.7
ratio of the EC50s (our compound relative to DTG) against N155H (HIV-1 IN mutant N155H; EC50 compound / EC50 DTG): 3.9
EC50 (HIV-1 IN mutant N155H; Human immunodeficiency virus 1, read-out: EC50 values N155H): 0.0141 ± 0.0043 µM
FC N155H (HIV-1 IN mutant N155H; [2]): 1.3
FC, difference in potencies 6w compared to 4f against G140S/Q148H ([1]; EC50 6w / EC50 4f): 18.8
ratio of the EC50s (our compound relative to DTG) against G140S/Q148H ([1]; EC50 compound / EC50 DTG): 16.8
EC50 ([1]; Human immunodeficiency virus 1, read-out: EC50 values G140S/Q148H): 0.0975 ± 0.0168 µM
FC G140S/Q148H [1, 2]: 9.2
ratio of the EC50s (our compound relative to DTG) against N117A (HIV-1 IN mutant N117A; EC50 compound / EC50 DTG): 12.8
EC50 (HIV-1 IN mutant N117A; Human immunodeficiency virus 1, read-out: EC50 values N117A): 0.0064 µM
FC N117A (HIV-1 IN mutant N117A; [2]): 0.6
ratio of the EC50s (our compound relative to DTG) against N117H (HIV-1 IN mutant N117H; EC50 compound / EC50 DTG): 7.9
EC50 (HIV-1 IN mutant N117H; Human immunodeficiency virus 1, read-out: EC50 values N117H): 0.019 ± 0.0014 µM
FC N117H (HIV-1 IN mutant N117H; [2]): 1.8
ratio of the EC50s (our compound relative to DTG) against G118R (HIV-1 IN mutant G118R; EC50 compound / EC50 DTG): 16.8
EC50 (HIV-1 IN mutant G118R; Human immunodeficiency virus 1, read-out: EC50 values G118R): 0.219 ± 0.0298 µM
FC G118R (HIV-1 IN mutant G118R; [2]): 20.7
ratio of the EC50s (our compound relative to DTG) against S119R (HIV-1 IN mutant S119R; EC50 compound / EC50 DTG): 16.6
EC50 (HIV-1 IN mutant S119R; Human immunodeficiency virus 1, read-out: EC50 values S119R): 0.0382 ± 0.006 µM
FC S119R (HIV-1 IN mutant S119R; [2]): 3.6
ratio of the EC50s (our compound relative to DTG) against Y143C (HIV-1 IN mutant Y143C; EC50 compound / EC50 DTG): 13.4
EC50 (HIV-1 IN mutant Y143C; Human immunodeficiency virus 1, read-out: EC50 values Y143C, single round infection, n = 4): 0.0188 ± 0.0014 µM
EC50 (HIV-1 IN mutant Y143C; read-out: EC50 values Y143C, single round infection, n = 4): > 0.018 µM
ratio of the EC50s (our compound relative to DTG) against Y143H (HIV-1 IN mutant Y143H; EC50 compound / EC50 DTG): 11.4
EC50 (HIV-1 IN mutant Y143H; Human immunodeficiency virus 1, read-out: EC50 values Y143H, single round infection, n = 4): 0.0251 ± 0.0036 µM
EC50 (HIV-1 IN mutant Y143H; read-out: EC50 values Y143H, single round infection, n = 4): > 0.018 µM
ratio of the EC50s (our compound relative to DTG) against P142A (HIV-1 IN mutant P142A; EC50 compound / EC50 DTG): 9.1
EC50 (HIV-1 IN mutant P142A; Human immunodeficiency virus 1, read-out: EC50 values P142A): 0.0228 ± 0.0025 µM
ratio of the EC50s (our compound relative to DTG) against P142H (HIV-1 IN mutant P142H; EC50 compound / EC50 DTG): 9.2
EC50 (HIV-1 IN mutant P142H; Human immunodeficiency virus 1, read-out: EC50 values P142H): 0.0257 ± 0.002 µM
ratio of the EC50s (our compound relative to DTG) against P142S (HIV-1 IN mutant P142S; EC50 compound / EC50 DTG): 14.2
EC50 (HIV-1 IN mutant P142S; Human immunodeficiency virus 1, read-out: EC50 values P142S): 0.0312 ± 0.0037 µM
ratio of the EC50s (our compound relative to DTG) against S230R (HIV-1 IN mutant S230R; EC50 compound / EC50 DTG): 2.4
EC50 (HIV-1 IN mutant S230R; Human immunodeficiency virus 1, read-out: EC50 values S230R): 0.0112 ± 0.0016 µM
FC S230R (HIV-1 IN mutant S230R; [2]): 1.1
ratio of the EC50s (our compound relative to DTG) against R231G (HIV-1 IN mutant R231G; EC50 compound / EC50 DTG): 10.9
EC50 (HIV-1 IN mutant R231G; Human immunodeficiency virus 1, read-out: EC50 values R231G): 0.0152 ± 0.0014 µM
FC R231G (HIV-1 IN mutant R231G; [2]): 1.4
ratio of the EC50s (our compound relative to DTG) against R231K (HIV-1 IN mutant R231K; EC50 compound / EC50 DTG): 6.7
EC50 (HIV-1 IN mutant R231K; Human immunodeficiency virus 1, read-out: EC50 values R231K, single round infection, n = 4): 0.0282 ± 0.0039 µM
FC R231K (HIV-1 IN mutant R231K; [2]): 2.7
